From patent US7282576B2, “Coactivators in the diagnosis and treatment of breast cancer” (Georgetown University, priority 2001, dated 2007)

Columns and labels:
[1] = system: human FGF-BP gene promoter; assay: EGF activation of FGF-BP gene promoter luciferase reporter in ME-180 cells; assay type: cell-based; settings: EGF 5 ng/ml, 18 h
Procedure: ME-180 cells were plated at a density of 5×10^5 cells per well and cultured for 24 h in IMEM supplemented with 5% dextran-charcoal-treated FBS. They were then incubated for 3 h in IMEM supplemented with Lipofectamine Plus and expression and reporter plasmids. Cells were washed and then incubated in IMEM for an additional 3 h before incubation for 18 h with EGF (5 ng/ml) in serum-free IMEM and subsequent lysis. Because of high background induction of pRL-CMV expression by EGF, firefly luciferase activity was normalized by protein concentration as described previously (32).
Cells were transfected with 3 μg of either pcDNA3, pcDNA3-AIB1, or pcDNA3-AIB1-Δ3, together with a luciferase reporter plasmid containing the human FGF-BP gene promoter (1 μg) (32) (FIG. 6). After incubation of cells for 18 h in the absence or presence of EGF (5 ng/ml) in serum-free medium, cell extracts were prepared and assayed for luciferase activity. Activity was normalized by protein concentration, and the normalized activity values were then expressed relative to that of cells transfected with pcDNA3 and not exposed to EGF. Data are means±SEM of values from three independent experiments, each performed in triplicate. *P<0.01 versus the corresponding value for control cells.

[2] = target: T1, human estrogen receptor α (Homo sapiens, UniProt P03372); assay: Transient transfection ERE-luciferase reporter assay in CHO cells; assay type: cell-based, hamster
T1 construct: expressed in transfected cells; host or cells: CHO cells
T1 sequence (P03372 1-595): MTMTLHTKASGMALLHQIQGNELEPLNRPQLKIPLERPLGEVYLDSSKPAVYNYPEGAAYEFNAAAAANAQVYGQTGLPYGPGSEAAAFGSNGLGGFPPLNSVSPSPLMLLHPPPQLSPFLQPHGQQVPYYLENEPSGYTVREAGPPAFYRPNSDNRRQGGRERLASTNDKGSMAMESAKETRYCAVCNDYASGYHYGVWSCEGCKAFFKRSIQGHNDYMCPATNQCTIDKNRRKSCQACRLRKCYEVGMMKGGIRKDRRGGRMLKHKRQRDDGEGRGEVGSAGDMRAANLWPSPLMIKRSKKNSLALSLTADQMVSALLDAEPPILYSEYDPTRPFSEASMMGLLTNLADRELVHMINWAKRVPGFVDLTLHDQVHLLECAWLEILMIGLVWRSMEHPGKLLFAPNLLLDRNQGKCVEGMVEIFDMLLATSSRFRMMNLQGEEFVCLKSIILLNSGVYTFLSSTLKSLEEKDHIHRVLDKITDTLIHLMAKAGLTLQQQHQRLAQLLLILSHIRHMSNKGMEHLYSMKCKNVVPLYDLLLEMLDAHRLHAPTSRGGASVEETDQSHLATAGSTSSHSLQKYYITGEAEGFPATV
Procedure: To verify that the Δ3-AIB1 mRNA was translated in vivo, transient transfection of CHO cells (FIG. 2; see FIG. 4a) or COS-1 cells (see FIG. 5a) with the Δ3-AIB1 cDNA was performed. COS-1 and CHO cells were plated at densities of 2×10^5 and 5×10^5 cells per well, respectively, in six-well plates, and were cultured for 24 h at 37° C. under 5% CO2 in IMEM or Ham's F-12, respectively, supplemented with 5% FBS that had been treated with dextran-coated charcoal. The medium was then replaced with IMEM containing Lipofectamine Plus (Gibco BRL) and expression and reporter plasmids as indicated. After incubation for 3 h, the medium was replaced with IMEM (COS-1 cells) or Ham's F-12 (CHO cells), each containing 5% dextran-coated charcoal-treated FBS and nuclear receptor ligands. Cells were incubated for 24 h and then disrupted in passive lysis buffer (Promega). Portions (20 μl) of the resulting cell extract were assayed for both firefly and renilla luciferase activities with the Dual-Luciferase reporter assay system (Promega).
The effect of the deletion of the bHLH and PAS A domains was next examined in Δ3-AIB1 on protein function. AIB1 acts as a coactivator for several nuclear receptors, including those for estrogen and progesterone, which are important in breast carcinogenesis. […]

| factor of potentiation of the estrogen response at approximately equal amounts of recombinant protein ([2]; 0.3 μg AIB1 vector vs 3 μg Δ3-AIB1 vector) | increase in estrogen-induced luciferase activity ([2]; 3 μg expression vector, 10 nM estradiol-17β, 24 h) [fold] | Substance | increase in FGF-BP promoter reporter activity ([1]; ME-180 control cells with empty expression vector) [fold] | increase of EGF induction of FGF-BP promoter reporter activity ([1]; ME-180 cells, 3 μg vector) |
| --- | --- | --- | --- | --- |
|  |  | EGF: epidermal growth factor [reference compound] | 2.5 |  |
| 1.1 | 1.4 | AIB1: 156-kDa full-length nuclear receptor coactivator amplified in breast cancer 1, expressed from pcDNA3-AIB1 |  | increased slightly |
